Experimental data published in patent US20230293524A1, “OTIC FORMULATIONS FOR DRUG-INDUCED OTOTOXICITY” (Spiral Therapeutics Inc, priority 2019, published 2023).
Entries after “also recorded” stand apart in the source; their conditions may differ.

Assays:
[1] = test system: outer hair cells (OHCs) and inner hair cells (IHCs); test: Cochlear explant model: hair cell protection against cisplatin; assay type: cell-based, Sprague-Dawley rats; details: for EC100: Rattus norvegicus, read-out: Ex-vivo Efficacy Conc. for complete protection of hair cells (uM)
Source text: (§1) For hair cell and spiral ganglion assessment, postnatal Sprague-Dawley rats (P2-P4) of both sexes are anesthetized with isoflurane and decapitated. Temporal bones are removed and transferred to a cell culture dish with ice-cold Ca^2+/Mg^2+-containing phosphate-buffered saline (PBS; Invitrogen) or cold HBSS medium enriched with glucose. Under microscopic visualization, the cochlear capsules are carefully removed from the temporal bone using forceps and transferred to a new cell culture dish containing ice-cold PBS. The cochleae are then dissected from the cochlear capsule using fine forceps. The stria vascularis is removed from the cochlear tissue and discarded. Dissected cochlear epithelia are transferred to permeable membrane inserts (Millicell organotypic culture plate inserts, Millipore) which are placed into 1 mL of culture media (Dulbecco's modified Eagle's medium (high glucose, Glutamax, 25 mM HEPES) with 10% fetal bovine serum, 1% N2 supplement and 10 units/ml penicillin) in a 6-well plate. Up to 4 cochleae are placed onto each membrane. Explants are placed in a humidified chamber with 5% CO2 at 37° C. for a minimum of 18 hours prior to treatment. Cultures are then pre-treated with test compounds and returned to the incubator for a period of 10 minutes to 48 hours.
(§2) Following the incubation period, cochlear samples are fixed in 4% paraformaldehyde for a minimum of 30 minutes after treatment then permeabilized in 0.5% Triton in PBS (PBST) for 1 hour, followed by overnight incubation at 4° C. in primary antibodies in 10% goat or donkey serum (Sigma). Samples are then rinsed in PBST 2 times for 10 minutes each then incubated in alexa-488 conjugated secondary antibodies for 2 hours at room temperature or overnight at 4° C. in 10% goat or donkey serum (Sigma). Samples are then rinsed 2 times in PBS then incubated in DAPI (1:3000) in PBS for 5 minutes prior to mounting on slides. To evaluate the otoprotective efficacy of the compounds, cochlear samples are immunostained using combination of antibodies generated against markers specific for hair cells (Myosin V1, Myosin VIIA, Parvalbumin, etc.), SGNs (TUJ1, Neurofilament, etc.), f-actin, cell death, cell stress, etc. as well as a nuclear stain to identify cell nuclei.
(§3) Immunostained samples are mounted on glass slides and imaged with an LSM880 laser scanning confocal microscope (Zeiss) or an Operetta high-content imager (Perkin Elmer). The entire explant is imaged for all antibody and nuclear labeling in a 3-dimensional X-Y-Z plane in which the Z-plane consists of a stack imaged at intervals of 0.5-5 μm. The total length of the organ of Corti in each explant is then determined and is divided into 4 equal length regions. Basal, middle and apical hair cells or SGNS are counted at the regions approximately 25%, 50% or 75% of the total cochlear length from the base, respectively. Hair cell survival is determined by counting the number of inner and outer hair cells at these three different regions (base, middle and apex) in each cochlear explant and determining the number of missing/dead hair cells per cochlear region. Hair cell counts are obtained by placing a 200 μm length scale bar parallel to the rows of hair cells at each region and manually counting the total number of outer hair cells (OHCs) and inner hair cells (IHCs) within the 200 μm. Similarly, to evaluate the health and survival of SGNs, the density of SGN fibers or soma is also determined per region by manual counting for same region selected for counting hair cells. Nuclear staining is analyzed to confirm the presence or absence of cell nuclei and to evaluate nuclear health. Image analysis and quantification is performed using Zeiss Zen Blue software, or Perkin Elmer Columbus software.
(§4) Neonatal (P2-P4) Sprague-Dawley rats were used for the experiments described here. Animals were euthanized following anesthesia using isoflurane. Rat cochleae were then dissected in cold HBSS medium enriched with glucose. […]

[2] = Cisplatin binding, % bound
stria vascularis cells = test: Dissociated strial cultures, caspase 3/7 activation with cisplatin; assay type: cell-based, Sprague-Dawley rats
Method: For strial explants, the stria vascularis is isolated from the cochlear tissue and transferred to a clean dish with cell culture media. For dissociated strial cultures, the stria vascularis is pulled off the lateral wall and collected separately. Strial cells are then dissociated using a pipette post-trypsinization and seeded onto Poly-d-lysine or collagen-coated 96-well plates. Cells are grown for 48-72 hours to achieve 80-90% confluency before treatment. […] Following treatment, cells are exposed to the Caspase-Glo 3/7 (Promega) reagent for 30 minutes then […] is read on a plate reader. In addition to the cell culture media described above, strial explants can also be maintained in the following media: MEM with Earle's salts, 15 mM HEPES buffer, 2 mM L-glutamine, 10 mg/L MEM non-essential amino acids, 2.5 mg/L fungizone, 100 units/ml penicillin, 100 mg/L streptomycin, 400 μg/L hydrocortisone, 5 mg/L transferrin, 2 nM triiodothyronine, 5 mg/L insulin, […], 10 μg/L epidermal growth factor, and 10% fetal bovine serum.
Following cochlear dissection, Reissner's membrane and the lateral wall were separated and the stria vascularis was then removed from the lateral wall. […] After incubation, cells were lysed using the Promega caspase 3/7 Glo kit and the intensity of caspase 3/7 were read using Perkin-Elmer Enspire plate reader.

[3] = test system: spiral ganglion neurons (SGNs); test: Cochlear explant model: spiral ganglion neuron protection against cisplatin; assay type: cell-based, Sprague-Dawley rats
Source text: as §1, §2, §3, §4

[4] = Cisplatin reaction kinetics by HPLC; details: 50 μM cisplatin + 50 μM of compound (API) in PBS, pH 7.4, 37° C.
Method: Reaction kinetics between Cisplatin and the compound of interest (nucleophile) were monitored by high performance liquid chromatography. Isocratic separation was achieved using a Waters Spherisorb C8 column (4×250 mm, 5 μm, 80 Å). The flow rate was set to 1.00 mL/min. The mobile phase consisted of 5 mM Sodium Octanesulfonate+5 mM Tetrabutyl Ammonium Hydrogen Sulfate+20 mM Potassium Dihydrogen Phosphate adjusted to pH 5.9. Detection was performed at a wavelength of 210 nm.
Reactions were conducted at equimolar concentrations in buffered aqueous media and held at 37° C. Rate constants (k) were determined by monitoring the disappearance of Cisplatin as a function of time.

[5] = test system: cisplatin-induced hearing loss (CIHL); test: 3-day acute CIHL animal model, ABR thresholds; assay type: in vivo; details: 3 days
Method: Study Design includes: […] Formulation was delivered IT unilaterally (right ear) 30 min prior CIS. There was gross visual necropsy observation performed at termination. Tissue collected for CCG evaluation • A: Cis IP/Vehicle P407 • B: Cis IP/STS 16 mg/ml in P407 • C: Cis IP/OMY-150 16 mg/ml in P407 • D: Cis IP/OMY-150 50 mg/ml in P407

[6] = Pharmacokinetic study after intratympanic administration; assay type: in vivo, rats
Method: Female rats (Charles River) weighing 200-300 g of approximately 12-16 weeks of age served as subjects (N=4 per group). Prior to any procedures, animals were anesthetized using a combination of xylazine (10 mg/kg), ketamine (50 mg/kg), and acepromazine (1 mg/kg) for up to an hour via the intraperitoneal route. If needed, an intraoperative booster was administered intraperitoneal representing a one-tenth of the original dose.
Intratympanic injection—Each animal was positioned so that the head was tilted at an angle to favor injection towards the round window niche. […] Formulations were delivered using a perfusion pump at the rate of 2 μL/sec. Contact with the round window membrane was maintained for 30 minutes by placing the animal in a recumbent position. During the procedure and until recovery, animals were placed on a temperature controlled (40° C.) heating pad until consciousness was regained at which time they were returned to the vivarium.
Perilymph sampling procedure—The skin behind the ear of anesthetized rats was shaved and disinfected with povidone-iodine. An incision was then made behind the ear, and muscles were carefully retracted from over the bulla. A hole was drilled through the bulla using a dental burr so that the middle ear was exposed and accessed. The cochlea and the round window membrane were visualized under a stereo surgical microscope. The basal turn of bulla was cleaned by using small cotton ball. A unique microhole was hand drilled through the bony shell of the cochlea (cochlear capsule) adjacent to the round window. Perilymph (about 2 μL) was then collected using a microcapillary inserted into the cochlear scala tympani. Perilymph samples were added to a vial containing 18 μL of acetonitrile/water, stored at −80° C. until analysis.
Cochlear epithelium sampling procedure—Under a dissection scope, the bulla was opened, and the cochlea was exposed by removing all surrounding muscles, blood vessels and bone tissues. Holding the bulla, the cochlear wall bony structure was removed working from the base to the apex of the cochlea, exposing the organ of Corti. The exposed cochlear epithelium was gently dabbed with cotton swab to remove excess of liquid from tissue, carefully transferred to labelled tube. Each 2-mL plastic tube that contained acid washed 2.8 mm stainless steel beads was pre-weighed. The tubes were reweighed after adding cochlea epithelium and weights were recorded. All cochlea epithelium samples were placed in dry ice immediately after collection and stored at −80° C. prior to analysis.
Plasma sampling procedure—Blood samples were collected by cardiac puncture into labeled micro-tubes, containing lithium heparin as anticoagulant. Plasma were immediately harvested from the blood by centrifugation and collection for supernatants. All plasma samples were stored at −80° C. prior to analysis.
Samples were extracted by protein precipitation, then vortexed and centrifuged. The supernatant was collected and diluted with two folds of water. A high-performance liquid chromatography system (Agilent 1200 series) with Waters Cortecs C18 Plus column (50*4.6 mm, 2.7 μm) were used. The flow rate was set at 0.700 mL/min. A gradient method with an analytical run time of 5 minutes was used. Mobile phase A consisted of 0.01% ammonium formate, 0.03% formic acid in water. Mobile phase B consisted of 0.01% ammonium formate, 0.03% formic acid in acetonitrile: methanol (70:30, v/v). The gradient began with 30% B, stepped to 70% B at 2.75 minutes and held for 1 minute and then stepped back to 30% B to re-equilibrate the column.
Ionizations and detection of analyte and internal standard were performed on a triple quadruple mass spectrometer, API 5500 Q-Trap equipped with Turbo IonSpray@, from SCIEX (Toronto, Canada). Electro spray ionization (ESI) mass spectra was operated in the positive ion mode. Carbutamide was used as the internal standard (IS). […]

[7] = 16 mg/ml in P407, IT 30 min prior CIS 12 mg/kg (IP)
[8] = 1.5 hour pretreatment followed by co-treatment at different concentrations with 10 μM cisplatin

Row | Compound | EC100 [1] [µM] | OHC protection ([1]; ex-vivo cochlear explants) | Cisplatin Binding % bound (in 30 min) at 1:10 ratio [2] [%] | strial cell protection (stria vascularis cells) | SGN protection ([3]; ex-vivo cochlear explants) | k [4] [M⁻¹ s⁻¹] | protection of ABR thresholds [5, 7] | protection of ABR thresholds ([5]; 50 mg/ml in P407, IT 30 min prior CIS 12 mg/kg (IP)) | In vivo PK in Cochlear Epithelium (24 h after dosing) [6] [ng/gm CE] | plasma exposure after IT injection ([6]; single IT injection) | perilymph and cochlear epithelium exposure after IT injection ([6]; single IT injection, MCT and/or poloxamer formulation) | protection of hair cells against cisplatin [1, 8] | protection of spiral ganglion neurons against cisplatin [3, 8] | Ex-vivo Efficacy Conc. for complete protection of hair cells ([1]; ex vivo cochlear explants, cisplatin) [µM]
1 | O=C(O)c1c[nH]c(=S)[nH]c1=O [5-carboxy-2-thiouracil] | 50 to 100 | good protection | 95 | good protection | good protection | – | – | – | – | – | – | – | – | –
2 | O=c1cc(-c2ccccc2)[nH]c(=S)[nH]1 [OMY-150, 6-phenyl-2-thiouracil] | 50 | – | 97 | – | – | 0.50 | strong protection | almost complete recovery | ~1000 | significantly lower (e.g. up to 10 times or more) plasma exposure than OMY-141; also recorded: lower plasma exposure than sodium thiosulfate (STS) | good perilymph and cochlear epithelium exposure | complete protection | complete protection | –
3 | O=S([O-])([O-])=S.[Na+].[Na+] [STS, sodium thiosulfate, reference compound] | – | – | 50 | – | – | 0.52 | less protection than in previous studies | – | ~1100 | – | – | – | – | 100
